Measured values as given in ChEMBL document CHEMBL6134835, “Rezatapopt (PC14586): A First-in-Class Small Molecule p53 Y220C Mutant Protein Stabilizer in Clinical Trials” (J Med Chem, 2025).

How the values were obtained:
[1] = system: Cellular tumor antigen p53 (Homo sapiens), P04637 [Y220C]; assay: Reactivation of N-terminal 6xHis-tagged recombinant p53 Y220C mutant (94 to 292 residues) (unknown origin) protein assessed as stabilization of Protein/DNA complex measuring substrate concentration required to increase DNA binding incubated for 48 mins by TR-FRET assay
[2] = Cmax in C57BL/6 mouse at 50 mg/kg, po measured for 24 hrs by LC-MS/MS analysis; type: ADME, organism-based; settings: in vivo
[3] = AUC (0 to last) in C57BL/6 mouse at 50 mg/kg, po measured for 24 hrs by LC-MS/MS analysis; type: ADME, organism-based; settings: in vivo
[4] = system: NUGC-3; assay: Antitumor activity against human NUGC-3 cells xenografted in female Balb/c nude mouse assessed as tumor growth inhibition at 25 mg/kg, po relative to control; type: functional; settings: read-out: TGI
[5] = system: NUGC-3; assay: Antitumor activity against human NUGC-3 cells xenografted in female Balb/c nude mouse assessed as tumor growth inhibition at 50 mg/kg, po relative to control; type: functional; settings: read-out: TGI

Structure (SMILES): CCN(CC)C1CCN(Cc2cc(C#CCNc3ccccc3)cc(I)c2O)CC1
- EC1.5 [1]: 1.6 µM

Structure (SMILES): CCn1c(C#CCNc2ccccc2)cc2cc(CNC)ccc21
- EC1.5 [1]: 13.6 µM

Structure (SMILES): CCn1c2ccccc2c2cc(CNC)ccc21
- EC1.5 [1]: 37.2 µM

Structure (SMILES): CN1CCC(Nc2cccc3c2cc(C#CCNc2ccc(C(C)(C)C#N)nc2)n3CC(F)(F)F)CC1
- EC1.5 [1]: 0.054 µM

Structure (SMILES): CNC(=O)c1ccc(NCC#Cc2cc3c(N[C@@H]4CCN(C)C[C@@H]4F)cccc3n2CC(F)(F)F)c(OC)c1 [REZATAPOPT]
- Cmax [2]: 16600 ng/mL
- AUC(0-t) at 24 h [3]: 163 µg·h/mL
- inhibition in vivo at 25 mg/kg [4]: 33%
- inhibition in vivo at 50 mg/kg [5]: 71%
- EC1.5 [1]: 0.009 µM
